Source: PubChem BioAssay (NCI)
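A five-concentration, 48-hour dose response in 96-well plates underlies each endpoint, interpolated linearly between surrounding concentrations. TGI is the concentration that stops growth completely.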

What was measured:
Assay in all cases: NCI tumour cell line growth inhibition, 48 h
SF-268 CNS = test system: SF-268 CNS
UO-31 renal = test system: UO-31 renal
MDA-MB-231 breast = test system: MDA-MB-231 breast
OVCAR-8 ovarian = test system: OVCAR-8 ovarian
RXF 393 renal = test system: RXF 393 renal
NCI-H522 lung = test system: NCI-H522 lung
PC-3 prostate = test system: PC-3 prostate
CCRF-CEM leukemia = test system: CCRF-CEM leukemia
OVCAR-5 ovarian = test system: OVCAR-5 ovarian
KM12 colon = test system: KM12 colon
NCI/ADR-RES ovarian = test system: NCI/ADR-RES ovarian
U251 CNS = test system: U251 CNS
HL-60(TB) leukemia = test system: HL-60(TB) leukemia
SNB-75 CNS = test system: SNB-75 CNS
MDA-MB-435 = test system: MDA-MB-435
HCC-2998 colon = test system: HCC-2998 colon
SK-MEL-5 melanoma = test system: SK-MEL-5 melanoma
HCT-15 colon = test system: HCT-15 colon
T-47D breast = test system: T-47D breast
OVCAR-4 ovarian = test system: OVCAR-4 ovarian

SMILES	TGI (SF-268 CNS)	TGI (UO-31 renal)	TGI (MDA-MB-231 breast)	TGI (OVCAR-8 ovarian)	TGI (RXF 393 renal)	TGI (NCI-H522 lung)	TGI (PC-3 prostate)	TGI (CCRF-CEM leukemia)	TGI (OVCAR-5 ovarian)	TGI (KM12 colon)	TGI (NCI/ADR-RES ovarian)	TGI (U251 CNS)	TGI (HL-60(TB) leukemia)	TGI (SNB-75 CNS)	TGI (MDA-MB-435)	TGI (HCC-2998 colon)	TGI (SK-MEL-5 melanoma)	TGI (HCT-15 colon)	TGI (T-47D breast)	TGI (OVCAR-4 ovarian)
CC(O)CCNC(=O)Nc1c(C(F)(F)F)cc(-c2ccccc2)[nH]c1=O (stereo not drawn)	> 100 µM	> 100 µM	> 100 µM	> 100 µM	> 100 µM	> 100 µM	> 100 µM	> 100 µM	> 100 µM	> 100 µM	> 100 µM	> 100 µM	> 100 µM	> 100 µM	> 100 µM	> 100 µM	> 100 µM	> 100 µM	> 100 µM	> 100 µM
CCCCC1C(=O)N(c2ccc(S(=O)(=O)Nc3ccccn3)cc2)N(c2ccc(O)c(C(=O)O)c2)C1=O (stereo not drawn)	> 100 µM	> 100 µM	> 100 µM	> 100 µM	> 100 µM	> 100 µM	> 100 µM	> 100 µM	> 100 µM	> 100 µM	> 100 µM	> 100 µM	> 100 µM	> 100 µM	> 100 µM	> 100 µM	> 100 µM	> 100 µM	> 100 µM	> 100 µM
CCOC(=O)c1ccc(NC(=O)O/N=C(/Cl)C(C)C)cc1	34.8 µM	31.9 µM	39.7 µM	27.9 µM	30.6 µM	3.85 µM	34.9 µM	2.55 µM	32.9 µM	35.9 µM	37.5 µM	36.3 µM	3.26 µM	27.4 µM	32.5 µM	33.2 µM	30 µM	24.9 µM	6.62 µM	28.4 µM
O=C1N[C@H]2C(=O)c3c(Cl)sc(Cl)c3[C@H]2O1	22.4 µM	3.24 µM	32 µM	7.74 µM	9.31 µM	8.83 µM	31 µM	10.9 µM	37.7 µM	44.2 µM	> 71.5 µM	11.6 µM	4.91 µM	30.4 µM	17.8 µM	3.6 µM	35 µM	16.6 µM	29.2 µM	
COC(=O)c1ccc(/C=C2\Cc3ccccc3C2=O)cc1	> 100 µM	> 100 µM	> 100 µM	> 100 µM	> 100 µM	> 100 µM	> 100 µM	> 100 µM		> 100 µM	> 100 µM	> 100 µM	> 100 µM	> 100 µM	> 100 µM	> 100 µM	> 100 µM	> 100 µM	> 100 µM	> 100 µM
NC(N)=NCc1ccc2c(c1)OCO2	> 100 µM	> 100 µM	> 100 µM		> 100 µM	> 100 µM	> 100 µM	> 100 µM	> 100 µM	> 100 µM	> 100 µM	> 100 µM	> 100 µM	> 100 µM	> 100 µM	> 100 µM	49.7 µM	> 100 µM	> 100 µM	> 100 µM
c1cc2[nH]snc2c2cncc12	> 100 µM	> 100 µM	> 100 µM	> 100 µM	> 100 µM	> 100 µM	> 100 µM	> 100 µM	> 100 µM	> 100 µM	> 100 µM		> 100 µM	> 100 µM	> 100 µM	> 100 µM	> 100 µM	> 100 µM	> 100 µM	> 100 µM
C=CCOc1ccc(C2(c3ccc(OCC=C)cc3)C(=O)Nc3ccccc32)cc1	> 10 µM		> 10 µM	> 10 µM	> 10 µM	> 10 µM	> 10 µM	> 10 µM	> 10 µM	> 10 µM	> 10 µM	> 10 µM	> 10 µM	> 10 µM	> 10 µM	> 10 µM	> 10 µM	> 10 µM	> 10 µM	> 10 µM
O=c1oc2ccccc2cc1-c1csc(Nc2cc(Cl)cc(Cl)c2)n1	> 100 µM	7.53 µM	63.8 µM	> 52 µM	14.6 µM	96.6 µM	> 100 µM	> 100 µM	> 100 µM	> 58.6 µM	> 83.7 µM	11.7 µM	> 100 µM	11.8 µM	> 53.1 µM	> 100 µM	> 100 µM	> 100 µM	> 100 µM	
COc1cccc(CCn2c(N)c(C(=O)O)c3ccc([N+](=O)[O-])cc3c2=O)c1	> 100 µM	> 100 µM	72.8 µM	> 100 µM	> 100 µM	75.8 µM	> 100 µM	> 100 µM	> 100 µM		89.7 µM	> 100 µM	> 100 µM	90.3 µM	> 100 µM	> 100 µM	> 100 µM	> 100 µM	> 100 µM	> 100 µM
